Laboratory results taken from PubChem BioAssay (NCI).
Values joined by “and” are separate entries in the source; they are usually repeats but may differ in a detail not shown here. Equal values may be shown once.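 A five-concentration, 48-hour dose response in 96-well plates underlies each endpoint, interpolated linearly between surrounding concentrations. Abbreviation: GI50, concentration required for 50% inhibition of growth. At the TGI there is no net growth.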

Key:
Assay in all cases: NCI-60 cell line screen, 48 h
[1] = test system: ACHN renal
[2] = test system: SF-295 CNS
[3] = test system: K-562 leukemia
[4] = test system: SF-539 CNS
[5] = test system: IGROV1 ovarian
[6] = test system: M14 melanoma
[7] = test system: HOP-92 NSCLC
[8] = test system: CCRF-CEM leukemia
[9] = test system: HT29 colon
[10] = test system: SK-MEL-5 melanoma

Row | SMILES | TGI [1] | TGI [2] | TGI [3] | TGI [4] | TGI [5] | TGI [6] | TGI [7] | TGI [8] | TGI [9] | TGI [10] | GI50 [1] | GI50 [2] | GI50 [3] | GI50 [4] | GI50 [6] | GI50 [7] | GI50 [8] | GI50 [9] | GI50 [10] | GI50 [5] [µM]
1 | CN1CC[C@]2(C)c3ccc(O)cc3CC3CCCC1C32C (some centres undefined) | > 100 µM | > 100 µM | > 100 µM | > 100 µM | > 100 µM | > 100 µM | > 100 µM | > 100 µM | > 100 µM | > 100 µM | – | – | – | – | – | – | – | – | – | –
2 | COc1cc2ncnc(Nc3ccc(F)c(Cl)c3)c2cc1NC(=O)/C=C/CN1CCCCC1 | 1.76 µM and 1.48 µM | 4.03 µM and > 7.08 µM | 5.12 µM and > 8.09 µM | 3.08 µM and 3.03 µM | 2.96 µM and 2.07 µM | 3.4 µM and 3.26 µM | 2.43 µM and 5.63 µM | 5.7 µM and 8 µM | 3.59 µM and > 7.79 µM | 3.13 µM and 3.06 µM | < 0.01 µM and 0.00256 µM | 1.78 µM and 2.44 µM | 1.65 µM and 2.05 µM | 1.63 µM and 1.56 µM | 1.72 µM and 1.61 µM | 0.0672 µM and 0.643 µM | 1.01 µM and 2.03 µM | 1.68 µM and 2.08 µM | 1.61 µM and 1.66 µM | –
3 | CN1C(=O)N(C)C2C1NN=c1s/c(=C\c3ccc(F)cc3)c(=O)n12 (centres undefined) | > 100 µM | > 100 µM | > 100 µM | 5.72 µM | > 100 µM | > 100 µM | > 100 µM | > 100 µM | > 100 µM | 12 µM | 4.39 µM | 2.45 µM | 0.54 µM | 2.1 µM | 2.24 µM | 8.49 µM | 1.91 µM | 0.951 µM | 0.995 µM | 3.21
4 | O=c1cccc(C2CC(CO)C3CCCCN3C2)[nH]1 (centres undefined) | > 100 µM | > 100 µM | > 100 µM | > 100 µM | > 100 µM | > 100 µM | > 100 µM | > 100 µM | > 100 µM | > 100 µM | – | – | – | – | – | – | – | – | – | –
5 | COc1ccc(N2C(=O)[C@H]3CC(C)c4c([nH]c5ccccc45)[C@H]3C2=O)cc1 (some centres undefined) | > 76.8 µM | 7.71 µM | 20 µM | 10.5 µM | 85.9 µM | 39.9 µM | 23.3 µM | 46.9 µM | 21 µM | 36.6 µM | – | – | – | – | – | – | – | – | – | –
6 | CCN(CC)C(=S)Oc1cc2oc(=O)cc(C)c2cc1Cl | > 100 µM | > 100 µM | > 100 µM | > 100 µM | > 100 µM | > 100 µM | > 100 µM | > 100 µM | > 100 µM | > 100 µM | – | – | – | – | – | – | – | – | – | –
7 | CC[PH+](CC)CC.O=COC1OC([S-])C(OC=O)C(OC=O)C1OC=O.[Au+] (centres undefined) | 3.16 µM | 3.24 µM | > 100 µM | 2.37 µM | 2.62 µM | 2.81 µM | 3.66 µM | 4.1 µM | 5.3 µM | 2.63 µM | 1.78 µM | 1.8 µM | 0.605 µM | 1.14 µM | 1.15 µM | 2.04 µM | 0.64 µM | 1.65 µM | 1.27 µM | 1.2
8 | COc1ccc2cc(-c3c(-c4ccncc4)nc(-c4ccc(S(C)(=O)=O)cc4C)n3C)ccc2c1 | > 25 µM | > 25 µM | > 25 µM | > 25 µM | > 25 µM | > 25 µM | 24.4 µM | > 25 µM | > 25 µM | > 15.4 µM | 8.36 µM | 7.83 µM | 6.88 µM | 10.8 µM | 10.1 µM | 5.16 µM | 8.46 µM | 8.37 µM | 4.54 µM | 7.47
